Experimental data taken from PubChem BioAssay (NCI).
Several values for one entry are separate records, joined by “and”; a condition that tells them apart may be missing. Equal entries are not always repeated.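 Dose response: 5 concentrations. Exposure: 48 h. Format: 96-well plates. Endpoint: linear interpolation; highest concentration if not reached. GI50 = concentration required for 50% inhibition of growth. TGI marks complete inhibition of growth.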

Tests used:
Test in all cases: NCI anticancer screen, dose series, 48 h
[1] = test system: A549 NSCLC
[2] = test system: CCRF-CEM leukemia
[3] = test system: HCT-116 colon
[4] = test system: HOP-92 NSCLC
[5] = test system: HS 578T breast
[6] = test system: KM20L2 colon
[7] = test system: M19-MEL melanoma
[8] = test system: MALME-3M melanoma
[9] = test system: MDA-MB-231 breast
[10] = test system: MDA-N
[11] = test system: NCI-H226 lung
[12] = test system: OVCAR-5 ovarian
[13] = test system: RPMI-8226 leukemia
[14] = test system: RXF 393 renal
[15] = test system: SF-268 CNS
[16] = test system: SF-539 CNS
[17] = test system: SN12C renal
[18] = test system: SNB-19 CNS
[19] = test system: SNB-75 CNS
[20] = test system: XF 498 CNS

`O=NN(CCCl)C(=O)NCCCl` was tested, and the GI50 [1] was 210 µM, the TGI [1] was 250 µM and 313 µM and > 379 µM and the GI50 [2] was 46 µM and 33.6 µM. For the same compound, the TGI [2] was 142 µM and 97.8 µM and 65.6 µM, the GI50 [3] was 62.5 µM and 112 µM and the TGI [3] was 155 µM and 156 µM and 256 µM. The GI50 [4] was 193 µM, the TGI [4] was 151 µM and > 262 µM and the GI50 [5] was 122 µM and 252 µM. The TGI [5] was 205 µM and 231 µM and > 317 µM, the TGI [6] was 205 µM and the TGI [7] was 160 µM. For the same compound, the GI50 [8] was 55.9 µM and 216 µM, the TGI [8] was 108 µM and 161 µM and > 294 µM and the GI50 [9] was 61.8 µM and 224 µM. For the same compound, the TGI [9] was 164 µM and 160 µM and > 295 µM, the GI50 [10] was 210 µM and the TGI [10] was 158 µM and > 301 µM. The GI50 [11] was 147 µM and 207 µM, the TGI [11] was 250 µM and > 383 µM and the GI50 [12] was 52.3 µM and > 500 µM. The TGI [12] was 104 µM and 184 µM and > 500 µM, the GI50 [13] was 34.3 µM and 118 µM and the TGI [13] was 120 µM and 198 µM and 260 µM. The GI50 [14] was 45.3 µM and > 238 µM, the TGI [14] was 86.6 µM and 149 µM and > 299 µM and the GI50 [15] was 31 µM. For the same compound, the TGI [15] was 98.4 µM and 138 µM and > 259 µM, the GI50 [16] was 31 µM and 84.1 µM and the TGI [16] was 92.6 µM and 116 µM and 190 µM. For the same compound, the GI50 [17] was 240 µM, the TGI [17] was 185 µM and 151 µM and > 310 µM and the GI50 [18] was 61.1 µM and 169 µM. The TGI [18] was 250 µM and 168 µM and > 380 µM, the GI50 [19] was 195 µM and the TGI [19] was 127 µM and 128 µM and > 421 µM. The TGI [20] was 135 µM.
